Legend:
HIV-1 M184V = conditions: cited from earlier work; for Resistance conferred by M184V as compared to WT: single amino acid residue mutation M184V
M184V HIV-1 RT [1] = target: T1, M184V HIV-1 RT (Human immunodeficiency virus type 1 group M subtype B, UniProt P03366, M783V/Q857C); test: Pre-steady-state single-turnover kinetics of nucleotide incorporation by M184V HIV-1 RT; assay type: biochemical
T1 construct: HIV-1 RT p66 and p51 subunits were expressed and purified as described previously; made in house
Description: (§1) Previous kinetic studies[16],[18],[20],[22]–[26] have aimed at understanding the efficiency of incorporation for (−)-FTC-TP or (−)-3TC-TP, how they compete against dCTP, and the effect of resistance mutations, such as M184V. As in our previous work[20],[25],[26], single-turnover kinetic assays were performed by rapidly mixing a pre-incubating solution of 120 nM HIV-1 RT (WT or M184V) and 30 nM 5ʹ-[^32P]-labeled 18/26-mer dsDNA substrate (Methods) with varying concentrations of dCTP, or an active metabolite of NRTIs for different times, before being quenched by 0.37 M EDTA. Representative kinetic plots displaying M184V-catalyzed incorporation of (−)-FTC-TP onto 18/26-mer dsDNA substrate are shown in Fig. 2. […] We determined the pre-steady-state kinetic parameters of maximal nucleotide incorporation rate constants (kp) and apparent equilibrium dissociation constants (Kd) for dCTP, (+)-FTC-TP, (−)-FTC-TP, (+)-3TC-TP and (−)-3TC-TP with WT or M184V HIV-1 RT (Table 1). […] The resulting selectivity factors ((kp/Kd)dCTP/(kp/Kd)NRTI) were determined to be only 1.9 and 7.0-fold higher for dCTP over (−)-FTC-TP and (−)-3TC-TP, respectively.
(§2) Fig. 2 Determination of kinetic parameters for (−)-FTC-TP incorporation onto 18/26-mer dsDNA catalyzed by the M184V mutant of HIV-1 RT. a A pre-incubated solution of 120 nM M184V and 30 nM 5′-[^32P]-labeled 18/26-mer was mixed with increasing concentrations of (−)-FTC-TP (3.75 µM, ●; 7.5 µM, [drawing 1]; 15 µM, [drawing 2]; 30 µM, x; 60 µM, [drawing 3]; 120 µM, [drawing 4]; 240 µM, [drawing 5]; 480 µM, [drawing 6] ) for various times at 37 °C before being quenched with 0.37 M EDTA.
(§3) HIV-1 RT (120 nM) and 5ʹ-[^32P]-labeled 18/26-mer DNA (30 nM; DNA sequence shown above the 18mer primer without chemical modification) were pre-incubated at 37 °C for 5 min in reaction buffer containing 50 mM Tris-HCl (pH, 7.9), 10 mM MgCl2, 50 mM NaCl, 0.1 mM EDTA, 10% glycerol, 5 mM DTT, and 0.1 µg/mL BSA (all concentrations are final upon mixing). The reactions were initiated by rapidly mixing with varying concentrations of dCTP, FTC-TP, or 3TC-TP on a rapid chemical-quench flow apparatus (KinTek) and quenched with 0.37 M EDTA at various times. The DNA products were analyzed by sequencing gel electrophoresis (17% polyacrylamide, 8 M Urea), and quantitated using a Typhoon Trio (GE Healthcare) and ImageQuant software (Molecular Dynamics). The kinetic data were fit using non-linear regression software KaleidaGraph (Synergy) to a single-exponential equation Product=A1−exp−kobst, where A and kobs represent the reaction amplitude and observed nucleotide incorporation rate constant, respectively. Values for kobs were then plotted against the respective dNTP (or an NRTI triphosphate) concentration and each plot was fit to a hyperbolic equation kobs=kpdNTP∕Kd+dNTP, where kp is the maximal nucleotide incorporation rate constant and Kd is the apparent equilibrium dissociation constant for the binding of dNTP (or an NRTI triphosphate) to the RT and DNA complex. Each set of kinetic parameters (kp, Kd, kp/Kd) are derived from 8 individual experiments where the concentration of nucleotide is variable (i.e. 8 distinct concentrations of dCTP or NRTI). All reported error values are derived from data fitting using non-linear regression software KaleidaGraph (Synergy).

WT HIV-1 RT = target: T2, WT HIV-1 RT (Human immunodeficiency virus type 1 group M subtype B, UniProt P03366, Q857C); test: Pre-steady-state single-turnover kinetics of nucleotide incorporation by WT HIV-1 RT; assay type: biochemical; conditions: for Kd: 18/26-mer dsDNA, 37 °C, read-out: Kd (apparent equilibrium dissociation constant); for Tighter binding (Kd) compared to natural dCTP: Kd dCTP / Kd analog
T2 construct: HIV-1 RT p66 and p51 subunits were expressed and purified as described previously; made in house
Description: as §1, §3

M184V HIV-1 RT [2] = test: Pre-steady-state single-turnover kinetics of nucleotide incorporation by M184V HIV-1 RT; assay type: biochemical; conditions: M184V vs WT RT
Description: as §1, §2, §3

M184V mutant RT = conditions: up; cited from earlier work
HIV virus = conditions: initial cell-based screening; cited from earlier work
HIV [3] = conditions: clinical trials, monotherapy; cited from earlier work
HIV [4] = system: HIV; design: method as in PMID 19225726; conditions: reportedly; cited from earlier work

Nc1ccn([C@H]2CS[C@@H](CO)O2)c(=O)n1 [3TC, 2ʹ,3ʹ-dideoxy-3ʹ-thiacytidine]
Reduction in potency by M184V in cell-based assays (HIV-1 M184V): > 500 fold
Resistance conferred by M184V as compared to WT (HIV-1 M184V): > 500 fold

Nc1ccn([C@H]2CS[C@@H](COP(=O)(O)OP(=O)(O)OP(=O)(O)O)O2)c(=O)n1 [(+)-3TC-TP]
Kd (M184V HIV-1 RT [1]): 5.4 ± 1.2 µM
Kd (WT HIV-1 RT; WT HIV-1 RT): 0.202 ± 0.004 µM

Nc1nc(=O)n([C@H]2CS[C@@H](COP(=O)(O)OP(=O)(O)OP(=O)(O)O)O2)cc1F [(+)-FTC-TP]
Kd (M184V HIV-1 RT [1]): 1.8 ± 0.3 µM
Kd (WT HIV-1 RT; WT HIV-1 RT): 0.19 ± 0.02 µM

Nc1ccn([C@@H]2CS[C@H](COP(=O)(O)OP(=O)(O)OP(=O)(O)O)O2)c(=O)n1 [(−)-3TC-TP]
Kd (M184V HIV-1 RT [1]): 53 ± 4 µM
Reduction of binding affinity (higher Kd) of M184V compared to WT (M184V HIV-1 RT [2]): 212 fold
Kd (WT HIV-1 RT; WT HIV-1 RT): 0.25 ± 0.01 µM
Higher Kd value (lower binding affinity) over (−)-FTC-TP (WT HIV-1 RT; WT RT): 2.5 fold
Tighter binding (Kd) compared to natural dCTP (WT HIV-1 RT; WT RT): 25 fold

Nc1nc(=O)n([C@@H]2CS[C@H](COP(=O)(O)OP(=O)(O)OP(=O)(O)O)O2)cc1F [(−)-FTC-TP]
Kd (M184V HIV-1 RT [1]): 28 ± 2 µM
Reduction of binding affinity (higher Kd) of M184V compared to WT (M184V HIV-1 RT [2]): 280 fold
Binding affinity increase (tighter binding) over (−)-3TC-TP (WT HIV-1 RT; WT HIV-1 RT): 2.5 fold
Higher incorporation efficiency (kp/Kd) than (−)-3TC-TP (WT HIV-1 RT; WT HIV-1 RT): 3.7 fold
Kd (WT HIV-1 RT; WT HIV-1 RT): 0.1 ± 0.01 µM
Tighter binding (Kd) compared to natural dCTP (WT HIV-1 RT; WT RT): 63 fold

Nc1nc(=O)n([C@H]2CS[C@@H](CO)O2)cc1F [FTC, 2ʹ,3ʹ-dideoxy-5-fluoro-3ʹ-thiacytidine]
Reduction in potency by M184V in enzyme-based assays (M184V mutant RT): > 300 fold
Cytotoxicity versus corresponding (+)-stereoisomer (HIV virus): less cytotoxic
Potency against the HIV virus versus corresponding (+)-stereoisomer (HIV virus): more potent
Reduction in potency by M184V in cell-based assays (HIV-1 M184V): > 500 fold
Resistance conferred by M184V as compared to WT (HIV-1 M184V): > 500 fold
Reduction in viral HIV RNA (HIV [3]): 1.7 log

Cc1cn([C@@H]2C[C@@H](O)[C@H](CO)O2)c(=O)[nH]c1=O [Telbivudine]
Inhibition of HIV (HIV [4]): does not inhibit HIV

Nc1ccn([C@H]2C[C@H](O)[C@@H](COP(=O)(O)OP(=O)(O)OP(=O)(O)O)O2)c(=O)n1 [dCTP, deoxycytidine triphosphate]
Kd (M184V HIV-1 RT [1]): 8.9 ± 1 µM
Kd (WT HIV-1 RT; WT HIV-1 RT): 6.3 ± 0.2 µM

Reference: article PMC6910994, “Elucidating molecular interactions of L-nucleotides with HIV-1 reverse transcriptase and mechanism of M184V-caused drug resistance” (Communications Biology, 2019)
